Laboratory results: publication PMC9225712, “Rational design of biodegradable sulphonamide candidates treating septicaemia by synergistic dual inhibition of COX-2/PGE2 axis and DHPS enzyme” (Journal of Enzyme Inhibition and Medicinal Chemistry, 2022)
Marks after values point to notes of the source that are not given here.

Key:
[1] = system: Salmonella typhi (RCMB 0100104); assay: Inhibition zone, agar cup diffusion; type: cell-based; details: Salmonella enterica, 24 h, read-out: inhibition zones (IZ) S. typhi
[2] = system: Pseudomonas aeruginosa (RCMB 0100243); assay: Inhibition zone, agar cup diffusion; details: RCMB0100243, 24 h, read-out: inhibition zones (IZ) P.aeruginosa
[3] = system: Bacillus subtilis (RCMB 0100162); assay: Inhibition zone, agar cup diffusion; details: RCMB0100162, 24 h, read-out: inhibition zones (IZ) B. subtillis
[4] = system: Shigella dysenteriae (RCMB 0100542); assay: Inhibition zone, agar cup diffusion; type: cell-based; details: RCMB0100542, 24 h, read-out: inhibition zones (IZ) S. dysenteriae
ovine COX-1 = biological target: T1, ovine COX-1 (Ovis aries, UniProt P05979); assay: In vitro COX-1 enzymatic assay (Cayman kit 560131); type: biochemical; details: Mean ± SEM of triplicate determinations
T1 construct: purchased Cayman Chemicals Inc. 560131
T1 sequence (P05979 25-600): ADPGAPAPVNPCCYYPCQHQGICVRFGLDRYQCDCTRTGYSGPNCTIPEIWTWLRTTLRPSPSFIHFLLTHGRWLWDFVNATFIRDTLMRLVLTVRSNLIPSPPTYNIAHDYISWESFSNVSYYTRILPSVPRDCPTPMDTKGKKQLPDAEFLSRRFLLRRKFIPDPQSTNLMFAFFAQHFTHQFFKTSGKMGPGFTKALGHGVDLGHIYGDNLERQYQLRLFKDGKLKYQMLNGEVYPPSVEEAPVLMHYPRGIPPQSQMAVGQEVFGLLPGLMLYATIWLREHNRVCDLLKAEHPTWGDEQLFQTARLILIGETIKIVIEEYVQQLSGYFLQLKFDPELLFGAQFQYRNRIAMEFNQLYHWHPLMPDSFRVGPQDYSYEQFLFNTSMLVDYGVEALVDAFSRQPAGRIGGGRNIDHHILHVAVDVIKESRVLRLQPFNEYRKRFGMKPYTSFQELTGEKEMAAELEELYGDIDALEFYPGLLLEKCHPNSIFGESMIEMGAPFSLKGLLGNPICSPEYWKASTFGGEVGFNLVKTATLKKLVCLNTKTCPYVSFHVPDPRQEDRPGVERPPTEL

[5] = system: Gram-positive and Gram-negative bacteria; assay: In vitro antibacterial screening, whole panel; type: cell-based; details: whole bacterial panel, result in words
[6] = system: Proteus vulgaris (RCMB 010085); assay: Inhibition zone, agar cup diffusion; details: RCMB010085, 24 h, read-out: inhibition zones (IZ) P. vulgaris
[7] = system: Staphylococcus aureus (RCMB 0100183); assay: Inhibition zone, agar cup diffusion; details: RCMB0100183, 24 h, read-out: inhibition zones (IZ) S. aureus
human recombinant COX-2 = biological target: T2, human recombinant COX-2 (Homo sapiens, UniProt P35354); assay: In vitro COX-2 enzymatic assay (Cayman kit 560131); details: for SI COX-1/COX-2: COX-2 selectivity index: COX-1 IC50/COX-2 IC50
T2 sequence (P35354 18-604): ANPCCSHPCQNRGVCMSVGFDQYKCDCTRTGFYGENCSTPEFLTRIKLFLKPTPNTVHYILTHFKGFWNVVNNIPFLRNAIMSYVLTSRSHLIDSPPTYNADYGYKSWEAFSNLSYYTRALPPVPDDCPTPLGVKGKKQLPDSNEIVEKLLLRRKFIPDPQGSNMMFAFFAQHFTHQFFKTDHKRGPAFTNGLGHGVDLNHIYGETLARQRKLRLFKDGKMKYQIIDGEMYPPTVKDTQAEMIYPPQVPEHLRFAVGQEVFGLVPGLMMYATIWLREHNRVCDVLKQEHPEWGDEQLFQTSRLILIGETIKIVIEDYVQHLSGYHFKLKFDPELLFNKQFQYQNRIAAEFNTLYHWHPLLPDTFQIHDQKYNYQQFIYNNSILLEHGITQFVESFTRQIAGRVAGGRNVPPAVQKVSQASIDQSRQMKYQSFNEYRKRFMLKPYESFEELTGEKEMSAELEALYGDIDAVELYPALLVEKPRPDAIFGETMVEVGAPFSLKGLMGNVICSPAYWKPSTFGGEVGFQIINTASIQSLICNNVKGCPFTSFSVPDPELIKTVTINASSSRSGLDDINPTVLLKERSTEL

[8] = system: Escherichia coli (RCMB 010052); assay: Inhibition zone, agar cup diffusion; details: RCMB010052, 24 h, read-out: inhibition zones (IZ) E.coli
[9] = system: Streptococcus mutans (RCMB 0100172); assay: Inhibition zone, agar cup diffusion; details: RCMB0100172, 24 h, read-out: inhibition zones (IZ) S. mutans
[10] = system: Staphylococcus epidermidis (RCMB 0100183); assay: Inhibition zone, agar cup diffusion; details: RCMB0100183, 24 h, read-out: inhibition zones (IZ) S. epidermidis
PGE2 = assay: Estimation of rat plasma PGE2; details: po 10 µmol/kg b.wt., 8 h after carrageenan; for % inhibition of PGE2-production: rat serum; for PGE2 serum conc.: rat, Mean ± SEM, n = 5
[11] = system: carrageenan-induced paw edoema; assay: Carrageenan-induced paw edoema in mice; details: for ED50: Mus musculus, 8 h, read-out: ED50 (95% confidence level); for Thickness of edoema 0h / percentage anti-inflammatory activity (AI%) 2h / Thickness of edoema 2h / percentage anti-inflammatory activity (AI%) 4h / Thickness of edoema 4h / percentage anti-inflammatory activity (AI%) 6h / Thickness of edoema 6h / Thickness of edoema 8h: mice, po 10 µmol/kg b.wt.; for Thickness of edoema 0h: 0 h (before carrageenan); for Thickness of edoema 0h / Thickness of edoema 2h / Thickness of edoema 4h / Thickness of edoema 6h / Thickness of edoema 8h: Mean ± SEM, n = 5; for Thickness of edoema 2h: 2 h after carrageenan; for Thickness of edoema 4h: 4 h after carrageenan; for Thickness of edoema 6h: 6 h after carrageenan; for Thickness of edoema 8h: 8 h after carrageenan
gastric layers = assay: Gastric ulcerogenic activity; details: fasted male Wistar rats, oral 30 µmol/kg twice at 4 h interval

SMILES: O=C(c1cc(N=Nc2ccc(S(=O)(=O)Nc3nccs3)cc2)ccc1O)N1CCOCC1 [Compound 5m, 4-((4-Hydroxy-3-(morpholine-4-carbonyl)phenyl)diazenyl)-N-(thiazol-2-yl)benzenesulfonamide]
- zone of inhibition at 1000 µg/mL [1]: 16 mm
- zone of inhibition at 1000 µg/mL [2]: 18 mm
- zone of inhibition at 1000 µg/mL [3]: 20 mm
- zone of inhibition at 1000 µg/mL [4]: 24 mm
- IC50 (ovine COX-1): 9.9 µM
- in vitro antibacterial activity [5]: weak in vitro antibacterial activity
- zone of inhibition at 1000 µg/mL [6]: 16 mm
- zone of inhibition at 1000 µg/mL [7]: 25 mm
- IC50 (human recombinant COX-2): 0.1 ± 0.0008 µM
- SI COX-1/COX-2 (human recombinant COX-2): 102.1
- zone of inhibition at 1000 µg/mL [8]: 18 mm
- zone of inhibition at 1000 µg/mL [9]: 29 mm
- zone of inhibition at 1000 µg/mL [10]: 33 mm

SMILES: O=C(O)Cc1ccccc1Nc1c(Cl)cccc1Cl [Diclofenac sodium, reference compound]
- % inhibition of PGE2-production (PGE2): 79.10%
- PGE2 serum conc. (PGE2): 276.052 ± 5.60 pg/mL
- ED50 [11]: 11.5 µmol/kg
- Thickness of edoema 0h [11]: 0.69 ± 0.004 mm
- percentage anti-inflammatory activity (AI%) 2h [11]: (-11.58%)
- Thickness of edoema 2h [11]: 1.06 ± 0.03^c mm
- percentage anti-inflammatory activity (AI%) 4h [11]: (38.19%)
- Thickness of edoema 4h [11]: 0.89 ± 0.01^c mm
- percentage anti-inflammatory activity (AI%) 6h [11]: (60.98%)
- Thickness of edoema 6h [11]: 0.80 ± 0.01^c mm
- Thickness of edoema 8h [11]: 0.71 ± 0.01^c mm
- Gastric ulcerogenic effect, histopathological examination of gastric layers (gastric layers): erosion in the gastric layers
- Gastric ulcerogenic effect, monitoring of isolated stomachs (gastric layers): signs of gastric ulcers and hyperaemia

SMILES: Cc1ccnc(NS(=O)(=O)c2ccc(/N=N/c3ccc(O)c(C(=O)N4CCCCC4)c3)cc2)n1 [Compound 5k, 4-((4-Hydroxy-3-(piperidine-1-carbonyl)phenyl)diazenyl)-N-(4-methylpyrimidin-2-yl) benzenesulfonamide]
- zone of inhibition at 1000 µg/mL [1]: 14 mm
- zone of inhibition at 1000 µg/mL [2]: 14 mm
- zone of inhibition at 1000 µg/mL [3]: 18 mm
- zone of inhibition at 1000 µg/mL [4]: 25 mm
- IC50 (ovine COX-1): 10.3 ± 0.08 µM
- in vitro antibacterial activity [5]: weak in vitro antibacterial activity
- zone of inhibition at 1000 µg/mL [6]: 19 mm
- zone of inhibition at 1000 µg/mL [7]: 19 mm
- IC50 (human recombinant COX-2): 0.09 ± 0.0003 µM
- SI COX-1/COX-2 (human recombinant COX-2): 111.9
- zone of inhibition at 1000 µg/mL [8]: 16 mm
- zone of inhibition at 1000 µg/mL [9]: 28 mm
- zone of inhibition at 1000 µg/mL [10]: 32 mm

SMILES: O=C(c1cc(/N=N/c2ccc(S(=O)(=O)Nc3nccs3)cc2)ccc1O)N1CCCCC1 [Compound 5i, 4-((4-Hydroxy-3-(piperidine-1-carbonyl)phenyl)diazenyl)-N-(thiazol-2-yl) benzenesulfonamide]
- zone of inhibition at 1000 µg/mL [1]: 15 mm
- zone of inhibition at 1000 µg/mL [2]: 18 mm
- zone of inhibition at 1000 µg/mL [3]: 19 mm
- zone of inhibition at 1000 µg/mL [4]: 22 mm
- IC50 (ovine COX-1): 11.2 ± 0.11 µM
- in vitro antibacterial activity [5]: weak in vitro antibacterial activity
- zone of inhibition at 1000 µg/mL [6]: 18 mm
- zone of inhibition at 1000 µg/mL [7]: 25 mm
- IC50 (human recombinant COX-2): 0.08 ± 0.0008 µM
- SI COX-1/COX-2 (human recombinant COX-2): 136.6
- zone of inhibition at 1000 µg/mL [8]: 16 mm
- zone of inhibition at 1000 µg/mL [9]: 31 mm
- zone of inhibition at 1000 µg/mL [10]: 30 mm

SMILES: CCCCNC(=O)c1cc(/N=N/c2ccc(S(=O)(=O)Nc3nccs3)cc2)ccc1O [Compound 5b, N-Butyl-2-hydroxy-5-((4-(N-(thiazol-2-yl)sulfamoyl)phenyl)diazenyl) benzamide]
- zone of inhibition at 1000 µg/mL [1]: 14 mm
- zone of inhibition at 1000 µg/mL [2]: 16 mm
- % inhibition of PGE2-production (PGE2): 65.70%
- PGE2 serum conc. (PGE2): 452.954 ± 6.48 pg/mL
- ED50 [11]: 18.7 µmol/kg
- Thickness of edoema 0h [11]: 0.68 ± 0.01 mm
- percentage anti-inflammatory activity (AI%) 2h [11]: (0%)
- Thickness of edoema 2h [11]: 0.95 ± 0.04 mm
- percentage anti-inflammatory activity (AI%) 4h [11]: (20.83%)
- Thickness of edoema 4h [11]: 1.19 ± 0.01 mm
- percentage anti-inflammatory activity (AI%) 6h [11]: (45.85%)
- Thickness of edoema 6h [11]: 1.11 ± 0.01 mm
- Thickness of edoema 8h [11]: 1.01 ± 0.02 mm
- zone of inhibition at 1000 µg/mL [3]: 20 mm
- zone of inhibition at 1000 µg/mL [4]: 22 mm
- IC50 (ovine COX-1): 12.2 ± 0.06 µM
- ED50 (S. aureus Smith; Staphylococcus aureus, in Mus musculus, read-out: ED50 against S. aureus infection): 413 µmol/kg
- ED50, protective effect against bacteremic infection, Staphylococcus aureus (S. aureus Smith; mice, challenge dose 9.5x10^6 CFU/mouse ip, intragastric once a day for 7 days, survival): 413.1 µmol/kg/day
- in vitro antibacterial activity [5]: weak in vitro antibacterial activity
- ED50 (E. coli C11; Escherichia coli, C11, in Mus musculus, read-out: ED50 against E.coli infection): 416 µmol/kg
- ED50, protective effect against bacteremic infection, Escherichia coli (E. coli C11; mice, challenge dose 7.1x10^3 CFU/mouse ip, intragastric once a day for 7 days, survival): 415.7 µmol/kg/day
- zone of inhibition at 1000 µg/mL [6]: 19 mm
- zone of inhibition at 1000 µg/mL [7]: 29 mm
- IC50 (human recombinant COX-2): 0.07 ± 0.0005 µM
- SI COX-1/COX-2 (human recombinant COX-2): 187.7
- zone of inhibition at 1000 µg/mL [8]: 14 mm
- zone of inhibition at 1000 µg/mL [9]: 27 mm
- zone of inhibition at 1000 µg/mL [10]: 34 mm
- Gastric ulcerogenic effect, histopathological examination of gastric layers (gastric layers): gastrointestinal safety profile
